Measured values from patent publication EP4467141A1, “PYRAZOLO-QUINOLINES AS SELECTIVE INHIBITORS OF GENOTOXIC STRESS-INDUCED IKK/NF- KB PATHWAYS FOR CANCER THERAPY” (Max-Delbrück-Centrum für Molekulare Medizin in der …, priority 2023, dated 2024).
Read-outs that look alike come from different tables or passages of the source.

Tests used:
Test in all cases: Kinase panel study
Type in all cases: biochemical
Conditions in all cases: for inhibition at 1 µM: 1000nM
PIP5K1B = molecular target: T1, PIP5K1B (Homo sapiens, UniProt O14986)
T1 construct: purchased Thermo Fisher Scientific
Procedure, shortened: (§1)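 Percent inhibition of each kinase by the test compound, given at either 1 µM or 10 µM, came from a contracted panel run by ZLyte or Adapta protocol.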

GSG2 (Haspin) = molecular target: T2, GSG2 (Haspin) (Homo sapiens, UniProt Q8TF76)
T2 construct: purchased Thermo Fisher Scientific
T2 sequence (Q8TF76 1-798): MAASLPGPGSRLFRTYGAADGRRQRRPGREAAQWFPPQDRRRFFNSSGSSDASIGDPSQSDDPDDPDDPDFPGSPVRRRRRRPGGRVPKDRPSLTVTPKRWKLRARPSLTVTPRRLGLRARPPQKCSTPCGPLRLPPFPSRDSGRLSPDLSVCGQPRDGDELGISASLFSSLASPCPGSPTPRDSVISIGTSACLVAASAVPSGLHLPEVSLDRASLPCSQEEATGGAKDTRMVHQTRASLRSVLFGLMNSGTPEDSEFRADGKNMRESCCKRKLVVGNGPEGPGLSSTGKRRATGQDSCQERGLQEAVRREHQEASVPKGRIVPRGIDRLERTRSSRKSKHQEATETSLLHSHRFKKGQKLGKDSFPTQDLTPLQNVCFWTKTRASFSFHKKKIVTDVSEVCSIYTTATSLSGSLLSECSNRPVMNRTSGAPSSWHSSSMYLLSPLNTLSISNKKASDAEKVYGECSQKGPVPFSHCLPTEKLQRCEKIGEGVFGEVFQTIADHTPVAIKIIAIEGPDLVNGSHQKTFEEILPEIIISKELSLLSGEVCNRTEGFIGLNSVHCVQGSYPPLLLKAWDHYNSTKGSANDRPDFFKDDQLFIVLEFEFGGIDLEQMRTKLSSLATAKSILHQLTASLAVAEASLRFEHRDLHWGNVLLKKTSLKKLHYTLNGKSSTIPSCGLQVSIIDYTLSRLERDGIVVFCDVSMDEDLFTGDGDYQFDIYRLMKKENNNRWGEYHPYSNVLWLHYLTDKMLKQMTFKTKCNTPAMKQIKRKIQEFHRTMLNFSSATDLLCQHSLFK
Procedure, shortened: as §1

PI4K2B (PI4K2 beta) = molecular target: T3, PI4K2B (PI4K2 beta) (Homo sapiens, UniProt Q8TCG2)
T3 construct: purchased Thermo Fisher Scientific
Procedure, shortened: as §1

AKT1 (PKB alpha) = molecular target: T4, AKT1 (PKB alpha) (Homo sapiens, UniProt P31749)
T4 construct: purchased Thermo Fisher Scientific
Procedure, shortened: as §1

PIP4K2A = molecular target: T5, PIP4K2A (Homo sapiens, UniProt P48426)
T5 construct: purchased Thermo Fisher Scientific
T5 sequence (P48426 1-406): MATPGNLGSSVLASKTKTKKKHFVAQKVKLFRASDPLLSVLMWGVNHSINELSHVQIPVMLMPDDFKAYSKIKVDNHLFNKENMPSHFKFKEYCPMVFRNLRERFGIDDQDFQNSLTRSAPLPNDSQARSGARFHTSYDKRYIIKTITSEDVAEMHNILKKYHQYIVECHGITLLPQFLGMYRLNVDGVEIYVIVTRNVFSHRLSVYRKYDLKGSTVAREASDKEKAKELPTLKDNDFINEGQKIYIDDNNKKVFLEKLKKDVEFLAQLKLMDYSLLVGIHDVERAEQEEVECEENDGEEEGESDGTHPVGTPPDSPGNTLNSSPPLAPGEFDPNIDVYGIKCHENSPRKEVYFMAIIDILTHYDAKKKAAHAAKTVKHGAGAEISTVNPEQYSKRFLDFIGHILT
Procedure, shortened: as §1

[1] = read-out: Percentage of inhibition
[2] = 10000nM, read-out: Percentage of inhibition
[3] = PIP5K1B, compound at 10µM, read-out: % of Inhibition
[4] = GSG2 (Haspin), compound at 10µM, read-out: % of Inhibition
[5] = PI4K2B (PI4K2 beta), compound at 10µM, read-out: % of Inhibition
[6] = AKT1 (PKB alpha), compound at 10µM, read-out: % of Inhibition
[7] = PIP4K2A, compound at 10µM, read-out: % of Inhibition

T3 sequence (Q8TCG2 whole entry): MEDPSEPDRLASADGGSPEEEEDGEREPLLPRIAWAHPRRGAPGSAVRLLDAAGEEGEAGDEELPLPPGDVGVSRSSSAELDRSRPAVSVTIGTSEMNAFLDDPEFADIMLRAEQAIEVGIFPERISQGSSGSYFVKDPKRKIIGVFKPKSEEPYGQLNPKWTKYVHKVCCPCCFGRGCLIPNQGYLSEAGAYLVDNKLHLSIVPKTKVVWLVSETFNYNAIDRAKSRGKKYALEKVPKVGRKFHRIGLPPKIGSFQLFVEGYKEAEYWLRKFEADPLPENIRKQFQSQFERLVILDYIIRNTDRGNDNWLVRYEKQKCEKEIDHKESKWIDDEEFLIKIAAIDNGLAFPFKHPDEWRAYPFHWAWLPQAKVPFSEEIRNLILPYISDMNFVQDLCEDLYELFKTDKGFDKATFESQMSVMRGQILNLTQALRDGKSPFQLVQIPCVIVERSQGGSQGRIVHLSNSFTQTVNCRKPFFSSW
T1 sequence (O14986 whole entry): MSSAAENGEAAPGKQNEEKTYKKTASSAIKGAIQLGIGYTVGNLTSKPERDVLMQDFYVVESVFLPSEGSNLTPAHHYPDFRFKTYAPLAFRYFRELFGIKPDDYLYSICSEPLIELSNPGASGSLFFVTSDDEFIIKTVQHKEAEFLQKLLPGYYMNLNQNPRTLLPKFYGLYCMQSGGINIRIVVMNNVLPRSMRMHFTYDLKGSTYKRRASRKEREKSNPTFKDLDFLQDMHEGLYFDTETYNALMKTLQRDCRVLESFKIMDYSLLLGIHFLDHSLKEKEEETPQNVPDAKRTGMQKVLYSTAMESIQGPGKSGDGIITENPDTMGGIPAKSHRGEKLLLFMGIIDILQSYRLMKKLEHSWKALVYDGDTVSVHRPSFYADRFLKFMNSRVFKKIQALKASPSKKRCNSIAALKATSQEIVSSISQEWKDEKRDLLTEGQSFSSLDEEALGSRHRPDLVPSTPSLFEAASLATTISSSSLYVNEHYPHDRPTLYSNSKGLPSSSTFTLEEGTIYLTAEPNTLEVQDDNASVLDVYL
T4 sequence (P31749 whole entry): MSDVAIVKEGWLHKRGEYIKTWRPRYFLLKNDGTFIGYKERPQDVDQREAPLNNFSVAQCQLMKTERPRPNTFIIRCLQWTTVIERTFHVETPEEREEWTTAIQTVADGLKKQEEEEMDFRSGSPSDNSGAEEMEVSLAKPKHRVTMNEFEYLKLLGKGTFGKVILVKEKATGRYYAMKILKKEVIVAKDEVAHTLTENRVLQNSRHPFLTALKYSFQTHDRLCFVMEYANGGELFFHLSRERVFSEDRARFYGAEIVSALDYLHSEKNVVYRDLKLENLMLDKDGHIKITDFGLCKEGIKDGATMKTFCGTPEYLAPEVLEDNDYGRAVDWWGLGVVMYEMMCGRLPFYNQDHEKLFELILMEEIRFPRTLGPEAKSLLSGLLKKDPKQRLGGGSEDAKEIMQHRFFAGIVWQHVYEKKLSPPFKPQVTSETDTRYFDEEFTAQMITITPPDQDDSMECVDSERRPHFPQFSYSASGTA

Which results are given for COc1ccc2c(c1OC)c(=O)n1c3ccc(O)cc3c3ccnc2c31 [MW01, 5-Hydroxy-10,11-dimethoxy-9H-benzo[c]indolo[3,2,1-ij][1,5]naphthyridin-9-one]?
inhibition at 1 µM (PIP5K1B; [1]): 4%; inhibition at 10 µM (PIP5K1B; [2]): 21%; inhibition at 1 µM (GSG2 (Haspin); [1]): 77%; inhibition at 10 µM (GSG2 (Haspin); [2]): 83%; inhibition at 1 µM (PI4K2B (PI4K2 beta); [1]): 3%; inhibition at 10 µM (PI4K2B (PI4K2 beta); [2]): 20%; inhibition at 1 µM (AKT1 (PKB alpha); [1]): 5%; inhibition at 10 µM (AKT1 (PKB alpha); [2]): 10%; inhibition at 1 µM (PIP4K2A; [1]): -8%; inhibition at 10 µM (PIP4K2A; [2]): -3%

What does the source list for COc1ccc2c(c1)c1ccnc3c4nc(OC)ccc4c(=O)n2c13 [MW01-E6, 5,15-dimethoxy-1,11,14-triazapentacyclo[10.7.1,0^2,7.0^8,^20.0^13,^18]icosa-2(7),3,5,8(20),9,11,13(18),14,16-nonaen-19-one]?
inhibition at 10 µM (PIP5K1B; [3]): 14%; inhibition at 10 µM (GSG2 (Haspin); [4]): 29%; inhibition at 10 µM (PI4K2B (PI4K2 beta); [5]): 11%; inhibition at 10 µM (AKT1 (PKB alpha); [6]): 6%; inhibition at 10 µM (PIP4K2A; [7]): -4%

What does the source list for O=c1c2cc(O)ccc2c2nccc3c4cc(O)ccc4n1c32 [MW01-E10, 5,16-dihydroxy-1,11-diazapentacyclo[10.7.1.0^2,^7.0^8,^20.0^13,^18]icosa-2(7),3,5,8(20),9,11,13(18),14,16-nonaen-19-one]?
inhibition at 10 µM (PIP5K1B; [3]): 5%; inhibition at 10 µM (GSG2 (Haspin); [4]): 80%; inhibition at 10 µM (PI4K2B (PI4K2 beta); [5]): 22%; inhibition at 10 µM (AKT1 (PKB alpha); [6]): 18%; inhibition at 10 µM (PIP4K2A; [7]): -2%

COc1ccc2c(c1)c1ccnc3c4ccnc(OC)c4c(=O)n2c13 [MW01-E14, 5,17-dimethoxy-1,11,16-triazapentacyclo[10.7.1.0^2,^7.0^8,^20.0^13,^18]icosa-2(7),3,5,8(20),9,11,13(18),14,16-nonaen-19-one] was tested. Which inhibition at 10 µM (PIP5K1B; [3]) did it give?
Its inhibition at 10 µM is 26%.

And the inhibition at 10 µM (GSG2 (Haspin); [4])?
Its inhibition at 10 µM is 24%.

What about the inhibition at 10 µM (PI4K2B (PI4K2 beta); [5]) of the same compound?
The inhibition at 10 µM was 21%.

What about the inhibition at 10 µM (AKT1 (PKB alpha); [6]) of the same compound?
The inhibition at 10 µM was 9%.

What about the inhibition at 10 µM (PIP4K2A; [7]) of the same compound?
The inhibition at 10 µM was 53%.

How did the inhibition at 10 µM (PIP5K1B; [3]) turn out when O=c1c2cnccc2c2nccc3c4cc(O)ccc4n1c32 [MW01-E18, 5-hydroxy-1,11,16-triazapentacyclo[10.7.1.0^2,^7.0^8,^20.0^13,^18]icosa-2(7),3,5,8(20),9,11,13(18),14,16-nonaen-19-one] was run?
Its inhibition at 10 µM is -3%.

And the inhibition at 10 µM (GSG2 (Haspin); [4])?
Its inhibition at 10 µM is 88%.

And the inhibition at 10 µM (PI4K2B (PI4K2 beta); [5])?
Its inhibition at 10 µM is 24%.

What about the inhibition at 10 µM (AKT1 (PKB alpha); [6]) of the same compound?
Its inhibition at 10 µM is 12%.

What about the inhibition at 10 µM (PIP4K2A; [7]) of the same compound?
Its inhibition at 10 µM is -1%.

How did the inhibition at 1 µM (PIP5K1B; [1]) turn out when COc1ccc2cc3c(N)nn(C(=O)c4cccc(N(C)C)c4)c3nc2c1 [MW05, (3-Amino-7-methoxypyrazolo[3,4-b]quinolin-1-yl)-[3-(dimethylamino)phenyl]methanone] was run?
The inhibition at 1 µM was -13%.

What about the inhibition at 10 µM (PIP5K1B; [2]) of the same compound?
The inhibition at 10 µM was 7%.

And the inhibition at 1 µM (GSG2 (Haspin); [1])?
Its inhibition at 1 µM is 4%.

And the inhibition at 10 µM (GSG2 (Haspin); [2])?
The inhibition at 10 µM was 20%.

What about the inhibition at 1 µM (PI4K2B (PI4K2 beta); [1]) of the same compound?
The inhibition at 1 µM was 9%.

And the inhibition at 10 µM (PI4K2B (PI4K2 beta); [2])?
The inhibition at 10 µM was 0%.

What about the inhibition at 1 µM (AKT1 (PKB alpha); [1]) of the same compound?
Its inhibition at 1 µM is 3%.

What about the inhibition at 10 µM (AKT1 (PKB alpha); [2]) of the same compound?
Its inhibition at 10 µM is 3%.

And the inhibition at 1 µM (PIP4K2A; [1])?
Its inhibition at 1 µM is -10%.

What about the inhibition at 10 µM (PIP4K2A; [2]) of the same compound?
Its inhibition at 10 µM is -9%.

With COc1ccc2nc3c(cc2c1)c(N)nn3C(=O)c1cccc(N(C)C)c1 [MW05-E2, 1-[3-(dimethylamino)benzoyl]-6-methoxy-1H-pyrazolo[3,4-b]quinolin-3-amine] as the compound, how does the inhibition at 10 µM (PIP5K1B; [3]) read?
The inhibition at 10 µM was -12%.

And the inhibition at 10 µM (GSG2 (Haspin); [4])?
Its inhibition at 10 µM is 36%.

And the inhibition at 10 µM (PI4K2B (PI4K2 beta); [5])?
The inhibition at 10 µM was 8%.

And the inhibition at 10 µM (AKT1 (PKB alpha); [6])?
The inhibition at 10 µM was 9%.

What about the inhibition at 10 µM (PIP4K2A; [7]) of the same compound?
Its inhibition at 10 µM is -6%.
